Key:
MAP2K4 (human) = MAP2K4 (human) (UniProt P45985); test: ELISA
MAP3K9 (human) = MAP3K9 (human) (UniProt P80192); test: ELISA
MAP3K10 (human) = MAP3K10 (human) (UniProt Q02779); test: ELISA
MAP3K1 (human) = MAP3K1 (human) (UniProt Q13233); test: ELISA
MAP2K5 (human) = MAP2K5 (human) (UniProt Q13163); test: ELISA
MAP3K2 (human) = MAP3K2 (human) (UniProt Q9Y2U5); test: ELISA
MOS (human) = MOS (human) (UniProt P00540); test: ELISA
MAP3K8 (human) = MAP3K8 (human) (UniProt P41279); test: ELISA
MAP2K1 (human) = MAP2K1 (human) (UniProt Q02750); test: ELISA
MAP2K2 (human) = MAP2K2 (human) (UniProt P36507); test: ELISA
STK11 (human) = STK11 (human) (UniProt Q15831); test: ELISA
PLK4 (human) = PLK4 (human) (UniProt O00444); test: ELISA
TTK (human) = TTK (human) (UniProt P33981); test: ELISA
RAF1 (human) = RAF1 (human) (UniProt P04049); test: ELISA
WEE1 (human) = WEE1 (human) (UniProt P30291); test: ELISA
BMPR1A (human) = BMPR1A (human) (UniProt P36894); test: ELISA
MAP3K12 (human) = MAP3K12 (human) (UniProt Q12852); test: ELISA
MAP3K4 (human) = MAP3K4 (human) (UniProt Q9Y6R4); test: ELISA
MAP2K3 (human) = MAP2K3 (human) (UniProt P46734); test: ELISA
MAP3K3 (human) = MAP3K3 (human) (UniProt Q99759); test: ELISA
MAP3K5 (human) = MAP3K5 (human) (UniProt Q99683); test: ELISA
MAP2K7 (human) = MAP2K7 (human) (UniProt O14733); test: ELISA
MAP2K6 (human) = MAP2K6 (human) (UniProt P52564); test: ELISA
EIF2AK3 (human) = EIF2AK3 (human) (UniProt Q9NZJ5); test: IMAP-FP
PLK2 (human) = PLK2 (human) (UniProt Q9NYY3); test: IMAP-FP
SRPK1 (human) = SRPK1 (human) (UniProt Q96SB4); test: IMAP-FP
CSNK1G3 (human) = CSNK1G3 (human) (UniProt Q9Y6M4); test: Caliper, Mobility shift assay off-chip
FLT3 (human) = FLT3 (human) (UniProt P36888); test: Caliper, Mobility shift assay off-chip
AKT3 (human) = AKT3 (human) (UniProt Q9Y243); test: Caliper, Mobility shift assay off-chip
PLK1 (human) = PLK1 (human) (UniProt P53350); test: Caliper, Mobility shift assay off-chip
LIMK1 (human) = LIMK1 (human) (UniProt P53667); test: ELISA
MAP3K11 (human) = MAP3K11 (human) (UniProt Q16584); test: ELISA
EIF2AK2 (human) = EIF2AK2 (human) (UniProt P19525); test: IMAP-FP
MAPK8 (human) = MAPK8 (human) (UniProt P45983); test: Caliper, Mobility shift assay off-chip

Chain of MAP2K6 (human) (P52564 whole entry, looked up): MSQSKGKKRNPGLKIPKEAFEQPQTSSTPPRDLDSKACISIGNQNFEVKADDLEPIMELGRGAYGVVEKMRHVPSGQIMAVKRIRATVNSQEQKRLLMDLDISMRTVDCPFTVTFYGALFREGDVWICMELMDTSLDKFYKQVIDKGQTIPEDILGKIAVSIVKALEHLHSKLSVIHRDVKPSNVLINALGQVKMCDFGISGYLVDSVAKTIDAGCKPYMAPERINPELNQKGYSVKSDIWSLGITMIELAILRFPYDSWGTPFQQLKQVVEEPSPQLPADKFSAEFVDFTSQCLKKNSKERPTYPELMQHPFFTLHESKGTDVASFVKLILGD
Chain of SRPK1 (human) (Q96SB4 whole entry, looked up): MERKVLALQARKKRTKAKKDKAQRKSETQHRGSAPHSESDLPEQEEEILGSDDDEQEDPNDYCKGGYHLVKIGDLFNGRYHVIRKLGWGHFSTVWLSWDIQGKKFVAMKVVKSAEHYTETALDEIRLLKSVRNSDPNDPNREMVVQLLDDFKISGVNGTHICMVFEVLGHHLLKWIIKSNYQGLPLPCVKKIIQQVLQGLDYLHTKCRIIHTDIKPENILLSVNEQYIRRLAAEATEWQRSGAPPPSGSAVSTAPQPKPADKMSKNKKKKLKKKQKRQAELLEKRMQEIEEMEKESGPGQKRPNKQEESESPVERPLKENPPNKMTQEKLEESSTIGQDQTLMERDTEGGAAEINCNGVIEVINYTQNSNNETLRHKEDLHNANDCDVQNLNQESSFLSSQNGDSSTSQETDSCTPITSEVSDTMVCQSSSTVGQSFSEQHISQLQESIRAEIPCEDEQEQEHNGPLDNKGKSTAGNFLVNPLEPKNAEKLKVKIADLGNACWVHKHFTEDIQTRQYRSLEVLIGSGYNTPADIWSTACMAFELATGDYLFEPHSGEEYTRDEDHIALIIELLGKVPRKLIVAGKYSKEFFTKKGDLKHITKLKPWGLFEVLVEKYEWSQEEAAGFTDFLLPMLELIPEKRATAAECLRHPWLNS
Chain of MAP3K10 (human) (Q02779 whole entry, looked up): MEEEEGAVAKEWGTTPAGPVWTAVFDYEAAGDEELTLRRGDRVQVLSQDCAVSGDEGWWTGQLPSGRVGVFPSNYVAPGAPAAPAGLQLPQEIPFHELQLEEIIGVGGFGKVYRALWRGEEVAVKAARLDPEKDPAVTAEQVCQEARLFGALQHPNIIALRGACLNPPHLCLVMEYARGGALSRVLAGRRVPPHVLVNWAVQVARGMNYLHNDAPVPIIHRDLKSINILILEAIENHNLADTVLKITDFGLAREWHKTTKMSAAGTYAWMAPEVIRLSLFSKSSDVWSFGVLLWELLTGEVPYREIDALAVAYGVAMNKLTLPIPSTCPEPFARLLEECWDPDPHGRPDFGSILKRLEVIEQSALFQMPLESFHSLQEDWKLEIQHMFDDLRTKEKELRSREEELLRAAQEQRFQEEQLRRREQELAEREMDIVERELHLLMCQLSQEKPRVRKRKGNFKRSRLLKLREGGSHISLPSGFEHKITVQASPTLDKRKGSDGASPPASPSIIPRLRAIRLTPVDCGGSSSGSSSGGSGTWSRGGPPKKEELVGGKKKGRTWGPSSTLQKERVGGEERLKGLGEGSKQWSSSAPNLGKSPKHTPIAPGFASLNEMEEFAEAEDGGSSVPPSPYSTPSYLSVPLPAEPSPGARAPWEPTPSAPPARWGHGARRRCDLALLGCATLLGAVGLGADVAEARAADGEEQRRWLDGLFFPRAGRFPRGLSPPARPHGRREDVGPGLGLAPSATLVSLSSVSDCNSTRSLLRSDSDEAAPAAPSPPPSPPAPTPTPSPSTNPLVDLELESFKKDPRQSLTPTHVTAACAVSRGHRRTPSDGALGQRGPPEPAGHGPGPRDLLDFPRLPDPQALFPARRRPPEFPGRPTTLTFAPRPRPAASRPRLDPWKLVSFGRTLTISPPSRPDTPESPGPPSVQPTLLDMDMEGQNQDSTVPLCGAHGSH
Chain of MAP2K3 (human) (P46734 whole entry, looked up): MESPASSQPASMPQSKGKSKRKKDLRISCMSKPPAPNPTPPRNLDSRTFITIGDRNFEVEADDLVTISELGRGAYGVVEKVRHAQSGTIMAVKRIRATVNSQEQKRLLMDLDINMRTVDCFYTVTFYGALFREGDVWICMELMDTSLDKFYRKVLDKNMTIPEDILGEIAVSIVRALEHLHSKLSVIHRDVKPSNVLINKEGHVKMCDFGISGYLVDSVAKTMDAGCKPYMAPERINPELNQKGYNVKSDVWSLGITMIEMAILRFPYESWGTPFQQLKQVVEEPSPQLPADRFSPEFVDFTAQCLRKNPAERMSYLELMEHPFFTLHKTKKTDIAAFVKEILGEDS
Chain of MAP2K1 (human) (Q02750 whole entry, looked up): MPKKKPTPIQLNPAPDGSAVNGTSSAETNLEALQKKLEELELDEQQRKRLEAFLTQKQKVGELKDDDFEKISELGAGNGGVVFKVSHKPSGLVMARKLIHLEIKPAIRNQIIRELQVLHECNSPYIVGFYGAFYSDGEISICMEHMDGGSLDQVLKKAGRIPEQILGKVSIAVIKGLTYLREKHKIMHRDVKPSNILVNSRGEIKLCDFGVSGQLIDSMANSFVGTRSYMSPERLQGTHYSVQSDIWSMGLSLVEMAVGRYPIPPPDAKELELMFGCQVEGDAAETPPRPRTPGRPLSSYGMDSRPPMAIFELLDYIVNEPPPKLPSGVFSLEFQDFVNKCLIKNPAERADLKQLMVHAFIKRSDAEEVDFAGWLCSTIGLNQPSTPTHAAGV
Chain of MAP2K5 (human) (Q13163 whole entry, looked up): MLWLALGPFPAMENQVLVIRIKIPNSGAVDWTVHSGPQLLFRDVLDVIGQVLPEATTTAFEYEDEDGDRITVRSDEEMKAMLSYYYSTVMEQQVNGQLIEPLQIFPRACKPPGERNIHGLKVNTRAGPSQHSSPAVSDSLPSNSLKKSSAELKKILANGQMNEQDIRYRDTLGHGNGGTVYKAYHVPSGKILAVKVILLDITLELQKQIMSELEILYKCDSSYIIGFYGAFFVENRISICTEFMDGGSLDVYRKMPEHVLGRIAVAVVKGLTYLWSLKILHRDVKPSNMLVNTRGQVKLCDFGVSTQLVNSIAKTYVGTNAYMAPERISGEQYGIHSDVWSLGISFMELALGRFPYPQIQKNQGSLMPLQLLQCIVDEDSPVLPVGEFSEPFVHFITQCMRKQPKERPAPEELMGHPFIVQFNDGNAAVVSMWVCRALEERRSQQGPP
Chain of MAP2K2 (human) (P36507 whole entry, looked up): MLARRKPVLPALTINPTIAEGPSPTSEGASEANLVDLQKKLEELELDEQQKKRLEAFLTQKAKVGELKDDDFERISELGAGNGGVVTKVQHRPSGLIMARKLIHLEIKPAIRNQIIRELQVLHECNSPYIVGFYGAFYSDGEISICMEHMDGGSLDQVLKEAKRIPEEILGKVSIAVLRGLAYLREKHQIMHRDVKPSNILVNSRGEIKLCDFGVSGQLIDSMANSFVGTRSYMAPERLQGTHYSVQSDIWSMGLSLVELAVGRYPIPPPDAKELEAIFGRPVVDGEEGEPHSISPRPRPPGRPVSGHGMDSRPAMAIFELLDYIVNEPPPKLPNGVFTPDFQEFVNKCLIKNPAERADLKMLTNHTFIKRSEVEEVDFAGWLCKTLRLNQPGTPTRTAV
Chain of PLK2 (human) (Q9NYY3 whole entry, looked up): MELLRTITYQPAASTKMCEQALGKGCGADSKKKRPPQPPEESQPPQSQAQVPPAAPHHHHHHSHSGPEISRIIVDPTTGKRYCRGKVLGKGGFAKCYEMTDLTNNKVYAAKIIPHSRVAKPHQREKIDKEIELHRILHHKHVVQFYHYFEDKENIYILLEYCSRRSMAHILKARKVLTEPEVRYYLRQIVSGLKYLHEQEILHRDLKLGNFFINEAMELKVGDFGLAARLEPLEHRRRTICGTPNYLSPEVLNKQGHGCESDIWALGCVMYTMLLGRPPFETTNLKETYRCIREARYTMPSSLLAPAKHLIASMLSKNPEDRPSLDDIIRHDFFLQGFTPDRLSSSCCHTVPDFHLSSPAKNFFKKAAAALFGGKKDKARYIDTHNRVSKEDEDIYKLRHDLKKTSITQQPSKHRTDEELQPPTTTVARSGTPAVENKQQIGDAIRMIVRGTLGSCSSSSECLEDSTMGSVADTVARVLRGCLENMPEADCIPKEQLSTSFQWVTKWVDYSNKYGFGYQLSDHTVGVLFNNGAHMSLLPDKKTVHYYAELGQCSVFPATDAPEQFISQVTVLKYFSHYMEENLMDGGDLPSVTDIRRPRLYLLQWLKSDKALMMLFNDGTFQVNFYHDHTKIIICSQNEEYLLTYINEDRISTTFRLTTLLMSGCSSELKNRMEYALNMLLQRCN
Chain of MAP3K2 (human) (Q9Y2U5 whole entry, looked up): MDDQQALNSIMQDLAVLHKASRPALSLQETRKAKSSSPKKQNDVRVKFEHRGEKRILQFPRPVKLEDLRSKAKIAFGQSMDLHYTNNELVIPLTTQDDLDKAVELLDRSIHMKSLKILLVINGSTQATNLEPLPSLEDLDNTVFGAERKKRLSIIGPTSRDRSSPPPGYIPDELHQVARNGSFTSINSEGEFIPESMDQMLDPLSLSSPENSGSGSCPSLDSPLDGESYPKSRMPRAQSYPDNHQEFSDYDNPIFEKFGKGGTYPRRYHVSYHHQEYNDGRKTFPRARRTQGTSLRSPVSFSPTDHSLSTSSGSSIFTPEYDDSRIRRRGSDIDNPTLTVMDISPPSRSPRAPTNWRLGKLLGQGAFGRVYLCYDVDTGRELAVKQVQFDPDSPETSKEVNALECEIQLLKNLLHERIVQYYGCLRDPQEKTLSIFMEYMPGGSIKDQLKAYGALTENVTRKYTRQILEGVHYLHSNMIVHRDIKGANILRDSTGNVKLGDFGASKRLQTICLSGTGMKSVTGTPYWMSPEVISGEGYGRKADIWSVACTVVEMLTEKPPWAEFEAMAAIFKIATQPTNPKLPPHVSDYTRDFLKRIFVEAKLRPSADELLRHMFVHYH

SMILES: Cc1ccc(Nc2nccc(N(C)c3ccc4c(C)n(C)nc4c3)n2)cc1S(N)(=O)=O
- inhibition (MAP2K4 (human); compound 0.02 µM): 8.7%
- inhibition (MAP2K4 (human); compound 0.2 µM): 9.5%
- inhibition (MAP3K9 (human); compound 0.02 µM): 28.1%
- inhibition (MAP3K9 (human); compound 0.2 µM): 74.8%
- inhibition (MAP3K10 (human); compound 0.02 µM): 8.1%
- inhibition (MAP3K10 (human); compound 0.2 µM): 17.3%
- inhibition (MAP3K1 (human); compound 0.02 µM): -1%
- inhibition (MAP3K1 (human); compound 0.2 µM): 3.7%
- inhibition (MAP2K5 (human); compound 0.02 µM): -16.9%
- inhibition (MAP2K5 (human); compound 0.2 µM): 0%
- inhibition (MAP3K2 (human); compound 0.02 µM): -4%
- inhibition (MAP3K2 (human); compound 0.2 µM): 12%
- inhibition (MOS (human); compound 0.02 µM): -6.8%
- inhibition (MOS (human); compound 0.2 µM): 5%
- inhibition (MAP3K8 (human); compound 0.02 µM): -2.6%
- inhibition (MAP3K8 (human); compound 0.2 µM): -1.1%
- inhibition (MAP2K1 (human); compound 0.02 µM): -3.2%
- inhibition (MAP2K1 (human); compound 0.2 µM): -5.7%
- inhibition (MAP2K2 (human); compound 0.02 µM): -7.4%
- inhibition (MAP2K2 (human); compound 0.2 µM): -4%
- inhibition (STK11 (human); compound 0.02 µM): 0.6%
- inhibition (PLK4 (human); compound 0.02 µM): 8.8%
- inhibition (PLK4 (human); compound 0.2 µM): 22.3%
- inhibition (TTK (human); compound 0.02 µM): -8.3%
- inhibition (TTK (human); compound 0.2 µM): 2.4%
- inhibition (RAF1 (human); compound 0.02 µM): 22.1%
- inhibition (RAF1 (human); compound 0.2 µM): 77.8%
- inhibition (WEE1 (human); compound 0.02 µM): -3.7%
- inhibition (WEE1 (human); compound 0.2 µM): -3.5%
- inhibition (BMPR1A (human); compound 0.02 µM): 0.4%
- inhibition (BMPR1A (human); compound 0.2 µM): 6.5%
- inhibition (MAP3K12 (human); compound 0.02 µM): 8.5%
- inhibition (MAP3K12 (human); compound 0.2 µM): 25%
- inhibition (MAP3K4 (human); compound 0.02 µM): -1.5%
- inhibition (MAP3K4 (human); compound 0.2 µM): 3%
- inhibition (MAP2K3 (human); compound 0.02 µM): -3.4%
- inhibition (MAP2K3 (human); compound 0.2 µM): 5.5%
- inhibition (MAP3K3 (human); compound 0.02 µM): 4.7%
- inhibition (MAP3K3 (human); compound 0.2 µM): 39.5%
- inhibition (MAP3K5 (human); compound 0.02 µM): 1.9%
- inhibition (MAP3K5 (human); compound 0.2 µM): 8.3%
- inhibition (MAP2K7 (human); compound 0.02 µM): 3.2%
- inhibition (MAP2K7 (human); compound 0.2 µM): 0.2%
- inhibition (MAP2K6 (human); compound 0.02 µM): 7.1%
- inhibition (MAP2K6 (human); compound 0.2 µM): 24.5%
- inhibition (EIF2AK3 (human); compound 0.02 µM): -15%
- inhibition (EIF2AK3 (human); compound 0.2 µM): -17%
- inhibition (PLK2 (human); compound 0.02 µM): 3.9%
- inhibition (PLK2 (human); compound 0.2 µM): -0.8%
- inhibition (SRPK1 (human); compound 0.02 µM): -6.8%
- inhibition (SRPK1 (human); compound 0.2 µM): -3.6%
- inhibition (CSNK1G3 (human); compound 0.02 µM): 0.7%
- inhibition (CSNK1G3 (human); compound 0.2 µM): -0.3%
- inhibition (FLT3 (human); compound 0.02 µM): 24.7%
- inhibition (FLT3 (human); compound 0.2 µM): 69.9%
- inhibition (AKT3 (human); compound 0.02 µM): -3.2%
- inhibition (AKT3 (human); compound 0.2 µM): -2.6%
- inhibition (PLK1 (human); compound 0.02 µM): -0.7%
- inhibition (PLK1 (human); compound 0.2 µM): -2.2%

SMILES: CNC(=O)c1cc(Oc2ccc(NC(=O)Nc3ccc(Cl)c(C(F)(F)F)c3)cc2)ccn1
- inhibition (MAP2K4 (human); compound 0.02 µM): 1.7%
- inhibition (MAP2K4 (human); compound 0.2 µM): 3.6%
- inhibition (MAP3K9 (human); compound 0.02 µM): 8.6%
- inhibition (MAP3K9 (human); compound 0.2 µM): 10.1%
- inhibition (MAP3K10 (human); compound 0.02 µM): -1.8%
- inhibition (MAP3K10 (human); compound 0.2 µM): -2.3%
- inhibition (LIMK1 (human); compound 0.02 µM): 2.6%
- inhibition (LIMK1 (human); compound 0.2 µM): 13%
- inhibition (MAP3K1 (human); compound 0.02 µM): 0.7%
- inhibition (MAP3K1 (human); compound 0.2 µM): -0.2%
- inhibition (MAP2K5 (human); compound 0.02 µM): 3.6%
- inhibition (MAP2K5 (human); compound 0.2 µM): 6.2%
- inhibition (MAP3K2 (human); compound 0.02 µM): 5.2%
- inhibition (MAP3K2 (human); compound 0.2 µM): 5.2%
- inhibition (MOS (human); compound 0.02 µM): 3%
- inhibition (MOS (human); compound 0.2 µM): 0.5%
- inhibition (MAP3K11 (human); compound 0.02 µM): 2.4%
- inhibition (MAP3K11 (human); compound 0.2 µM): -2.6%
- inhibition (MAP3K8 (human); compound 0.02 µM): 0.5%
- inhibition (MAP3K8 (human); compound 0.2 µM): 0.2%
- inhibition (MAP2K1 (human); compound 0.02 µM): 13.7%
- inhibition (MAP2K1 (human); compound 0.2 µM): 17.4%
- inhibition (MAP2K2 (human); compound 0.02 µM): -1.8%
- inhibition (MAP2K2 (human); compound 0.2 µM): -2.7%
- inhibition (STK11 (human); compound 0.02 µM): 6.4%
- inhibition (STK11 (human); compound 0.2 µM): 6.2%
- inhibition (PLK4 (human); compound 0.02 µM): 10.5%
- inhibition (PLK4 (human); compound 0.2 µM): 13.4%
- inhibition (TTK (human); compound 0.02 µM): -7.6%
- inhibition (TTK (human); compound 0.2 µM): -4.3%
- inhibition (RAF1 (human); compound 0.02 µM): 41.7%
- inhibition (RAF1 (human); compound 0.2 µM): 88.1%
- inhibition (WEE1 (human); compound 0.02 µM): -7.4%
- inhibition (WEE1 (human); compound 0.2 µM): -2%
- inhibition (BMPR1A (human); compound 0.02 µM): 6.9%
- inhibition (BMPR1A (human); compound 0.2 µM): 7%
- inhibition (MAP3K12 (human); compound 0.02 µM): 4.1%
- inhibition (MAP3K12 (human); compound 0.2 µM): 2.7%
- inhibition (MAP3K4 (human); compound 0.02 µM): 8.5%
- inhibition (MAP3K4 (human); compound 0.2 µM): 4.4%
- inhibition (MAP2K3 (human); compound 0.02 µM): 9.8%
- inhibition (MAP2K3 (human); compound 0.2 µM): 58.5%
- inhibition (MAP3K3 (human); compound 0.02 µM): -2.1%
- inhibition (MAP3K3 (human); compound 0.2 µM): -3%
- inhibition (MAP3K5 (human); compound 0.02 µM): 9.6%
- inhibition (MAP3K5 (human); compound 0.2 µM): 7.4%
- inhibition (MAP2K7 (human); compound 0.02 µM): -0.7%
- inhibition (MAP2K7 (human); compound 0.2 µM): 1.1%
- inhibition (MAP2K6 (human); compound 0.02 µM): 13.6%
- inhibition (MAP2K6 (human); compound 0.2 µM): 64.2%
- inhibition (EIF2AK3 (human); compound 0.02 µM): -23.9%
- inhibition (EIF2AK3 (human); compound 0.2 µM): 4.5%
- inhibition (PLK2 (human); compound 0.02 µM): -0.6%
- inhibition (PLK2 (human); compound 0.2 µM): -2.1%
- inhibition (EIF2AK2 (human); compound 0.02 µM): -12.3%
- inhibition (EIF2AK2 (human); compound 0.2 µM): -14.3%
- inhibition (SRPK1 (human); compound 0.02 µM): -5.4%
- inhibition (SRPK1 (human); compound 0.2 µM): 0.2%
- inhibition (CSNK1G3 (human); compound 0.02 µM): -1.4%
- inhibition (CSNK1G3 (human); compound 0.2 µM): -6.9%
- inhibition (MAPK8 (human); compound 0.02 µM): -2.3%
- inhibition (MAPK8 (human); compound 0.2 µM): -2.1%
- inhibition (AKT3 (human); compound 0.02 µM): -2.6%
- inhibition (AKT3 (human); compound 0.2 µM): -1.1%
- inhibition (PLK1 (human); compound 0.02 µM): -3.1%
- inhibition (PLK1 (human); compound 0.2 µM): -3.7%

Reference: the kinase profiling compilation of Christmann-Franck et al. (2016)
